The source of these data is PMC10938758, “A phenotypic screen of the Global Health Priority Box identifies an insecticide with anthelmintic activity” (Parasites & Vectors, 2024).

Series [1] concerns adult females of H. contortus. Nature of the series: Motility of H. contortus adult females (video scoring). The arrangement: species or system Haemonchus contortus. The conditions noted are these: 40 μM. The method, then: The activity of two test compounds was assessed on adult female specimens of H. contortus in an established assay. The compound was added in triplicate to the wells of a 24-well plate (Corning, USA) at a concentration of 40 μM in 500 μl of RPMI*. Two positive-control compounds, monepantel and moxidectin, and a negative control containing 1% (v/v) DMSO only were included in triplicate on the same plate. Three adult females were added to each of the triplicate wells containing either the test compound or the controls and placed in a CO2 incubator (10% [v/v] CO2, 38 °C, > 90% relative humidity) for 24 h. A video recording (30 s) of each well was taken at 3 h, 6 h, 12 h and 24 h during the total incubation period to assess the reduction in worm motility, which was scored as 3 (‘good’), 2 (‘low’), 1 (‘very low’) or 0 (‘no movement’; cf.). For each test or control compound, the motility scores for each of the triplicate wells were calculated, normalised with reference to the negative control (100% motility) and recorded as a percentage. A two-way ANOVA with a Tukey multiple comparison test was used to establish statistically significant differences in worm motility.

Series [2] has as its system HepG2 human hepatoma cells. Nature of the series: Mitotoxicity on HepG2 cells (galactose medium, crystal violet). The class given is cell-based. Particulars: 48 h, D-galactose medium, serum-starved. The method, then:
The cytotoxic and mitotoxic activity of MMV1794206 on HepG2 human hepatoma cells was evaluated using an established protocol. […] Monepantel and moxidectin (prepared in the same manner as the test compound) were included as reference compounds. Two compounds, doxorubicin (cytotoxic; Sigma-Aldrich, USA) and M-666 (mitotoxic; [57]), were used as positive controls at a single concentration of 10 µM. A solution of DMEM* + 0.25% (v/v) DMSO was used as a negative control. HepG2 cells were seeded into wells of a 96-well plate in 80 µl of DMEM* (at 1 × 10^5 cells per well) and allowed to adhere for 16 h at 37 °C and 5% (v/v) CO2 at > 90% humidity prior to incubation with individual compounds, at a final volume of 100 µl. For the assessment of mitochondrial toxicity, cells were starved of serum (DMEM* without FBS) for 4 h prior to the incubation with compounds [60, 61]. Following 48 h of incubation with compounds, cell viability was determined by crystal violet staining. The absorbance (595 nm) of treated cells was normalised using the negative controls (viability: 100%) to calculate the cell viability. All compounds and controls were tested in triplicate. […]

The subject of a further series is H. contortus xL3s. Nature of the series: H. contortus dose-response assay, xL3 motility. The arrangement: species or system Haemonchus contortus. The method, then: The dose–response assay for H. contortus followed a well-established protocol; it was employed to evaluate the potency of hit compounds against this nematode. Test compounds were assessed individually for an effect on the motility of xL3s (10-point, twofold serial dilution in LB*, 40–0.16 μM). One compound, monepantel (prepared in the same manner as the test compounds), was used as a positive control. A solution of LB* was used as a negative control. The test and positive-control compounds were arrayed in triplicate across individual flat-bottom 96-well microplates, with six wells on each plate containing the negative control. Three hundred xL3s of H. contortus in 50 μl of LB* were added to each well to give a final volume of 100 μl. Plates were then placed in a CO2 incubator (10% [v/v] CO2, 38 °C, > 90% humidity). […] Over a period of 15 min, disturbance of an infrared beam in individual wells was recorded as a worm activity count. Raw activity counts for each well were normalised to the negative controls. The compound concentrations were log10-transformed and fitted using a variable-slope four-parameter equation, using the ordinary least squares fit model, employing GraphPad Prism (v.9.1.0). Larval development was established at 168 h of incubation with compound, as described previously. The development inhibition and phenotypes of larvae were examined microscopically. A one-way analysis of variance (ANOVA) with a Tukey multiple comparison test or an unpaired t-test was used to establish statistically significant differences in larval motility or development.

Series [3] relates to acetylcholine esterase (AChE). Particulars: in vitro and in vivo; direct or indirect effect not confirmed; cited from earlier work.
In another series the test system is H. contortus larvae. Nature of the series: H. contortus dose-response assay, larval development. The conditions noted are these: Haemonchus contortus, 168 h, read-out: IC50, inhibition of H. contortus larval development. The arrangement: species or system Haemonchus contortus. Here is the method:
The dose–response assay for H. contortus followed a well-established protocol; it was employed to evaluate the potency of hit compounds against this nematode. Test compounds were assessed individually for an effect on the motility of xL3s (10-point, twofold serial dilution in LB*, 40–0.16 μM). One compound, monepantel (prepared in the same manner as the test compounds), was used as a positive control. A solution of LB* was used as a negative control. The test and positive-control compounds were arrayed in triplicate across individual flat-bottom 96-well microplates, with six wells on each plate containing the negative control. Three hundred xL3s of H. contortus in 50 μl of LB* were added to each well to give a final volume of 100 μl. Plates were then placed in a CO2 incubator (10% [v/v] CO2, 38 °C, > 90% humidity). After 168 h of incubation, worm activity was captured using a WMicroTracker ONE unit. Over a period of 15 min, disturbance of an infrared beam in individual wells was recorded as a worm activity count. Raw activity counts for each well were normalised to the negative controls. The compound concentrations were log10-transformed and fitted using a variable-slope four-parameter equation, using the ordinary least squares fit model, employing GraphPad Prism (v.9.1.0). Larval development was established at 168 h of incubation with compound, as described previously. The development inhibition and phenotypes of larvae were examined microscopically. A one-way analysis of variance (ANOVA) with a Tukey multiple comparison test or an unpaired t-test was used to establish statistically significant differences in larval motility or development.

For `CC(F)c1ncnc(NCCc2ccc(OC(F)(F)F)cc2)c1Cl` (stereo not drawn) [MMV1794206, flufenerim], the “Reduction of motility of adult females of H. contortus” value in series [1] (3 h) is recorded as ~ 33%; in series [1] (6 h) it was around 89%; in series [1] (12 h) it was 100%; in series [1] (24 h), around 100%. For the same molecule, the “half-maximal mitotoxic concentration (MC50)” value in series [2] was below 0.7 µM. The IC50 in the series on H. contortus xL3s (Haemonchus contortus, 90 h, read-out: IC50, H. contortus larval motility inhibition) came out at 18 µM; with H. contortus larvae, 1.2 µM. Further, the “Maximum motility inhibition (MMI), H. contortus larvae” value with H. contortus xL3s (xL3s, 90 h of incubation) amounted to 98%. Further, the “AChE activity in whiteflies following treatment” value in series [3] is reported as “decrease in acetylcholine esterase (AChE) activity”.
